{"source": "patent US12290509B2", "about": "“Treatment of hepatitis delta virus infection” (priority 2014, dated 2025)", "key": {"[1]": {"details": "Norvir package insert, cited from earlier work"}, "[2]": {"system": "hepatitis delta virus (HDV)", "assay_type": "in vivo, human"}, "[3]": {"experiment": "Serum ALT values in HDV patients", "assay_type": "in vivo, human"}, "[4]": {"experiment": "Lonafarnib serum/plasma concentration in HDV patients (LC-MS/MS)", "assay_type": "in vivo, human", "details": "N=3", "description": "As used herein, a serum lonafarnib level or concentration can be measured from a serum sample obtained from a subject periodically (such as weekly, biweekly, monthly or according to other schedules) and the levels during intervening periods can be extrapolated. […] In some embodiments the first measurement is made no earlier than one week after the initiation of oral therapy. Serum levels of lonafarnib can be measured using art-known methods, including radioimmunoassays, chromatographic assays, mass spectrometry and the like. In some embodiments of the invention, patient serum samples were extracted using a protein precipitation method (Acetonitrile)."}, "[5]": {"details": "cited from earlier work"}, "[6]": {"details": "formulated in crystalline forms; cited from earlier work"}, "[7]": {"details": "200 mg BID lonafarnib; Hanrahan et al. 2009, List et al. 2002; cited from earlier work"}, "[8]": {"experiment": "Adverse events / tolerability in HDV patients", "details": "N=3"}, "hepatitis B virus (HBV)": {"system": "hepatitis B virus (HBV)", "experiment": "HBV DNA viral load and HBsAg in patients infected with HBV and HDV", "details": "200 mg BID lonafarnib 12 weeks; baseline about 4 log IU/ml; below LOQ of 2 log IU/mL", "source_text": "The term “HBV viral load” of a human serum or plasma sample refers to the number of copies of human HBV DNA in a given amount of human serum or plasma sample. HBV DNA may be detected and quantitated using real-time PCR. Commercial assays for quantitating HBV DNA are available. In the United States, Abbott offers the RealTime HBV assay, which is an in vitro PCR assay for the quantitation of HBV DNA in human serum or plasma. A CE certified kit for real-time PCR-based detection of HBV is commercially available from Analytik Jena, Germany (RoboGene® HBV DNA Quantification Kit 2.0)."}}, "note": "Where “and” joins values, the source holds several entries; their conditions need not be identical. Equal values may be shown once. Read-outs that look alike come from different tables or passages of the source."}
{"smiles": "CC(C)c1nc(CN(C)C(=O)N[C@H](C(=O)N[C@@H](Cc2ccccc2)C[C@H](O)[C@H](Cc2ccccc2)NC(=O)OCc2cncs2)C(C)C)cs1", "note": "[ritonavir]", "values": [{"measurement": "increase in AUC of the co-administered primary drug", "setting": "[1]; Fluticasone propionate, aqueous nasal spray", "value": 350, "unit": "fold"}, {"measurement": "increase in AUC of the co-administered primary drug", "setting": "[1]; sidenafil", "value": 11, "unit": "fold"}, {"measurement": "increase in AUC of the co-administered primary drug", "setting": "[1]; trimethoprim", "value": 1.2, "unit": "fold"}]}
{"smiles": "NC(=O)N1CCC(CC(=O)N2CCC([C@H]3c4ncc(Br)cc4CCc4cc(Cl)cc(Br)c43)CC2)CC1", "note": "[lonafarnib]", "values": [{"measurement": "Δ log Baseline to Day 28", "setting": "[2]; 200 mg BID lonafarnib, individual patients 4-6", "value": "−1.85 log and −1.06 log and −1.98 log"}, {"measurement": "Δ log Baseline to Day 28", "setting": "[2]; 300 mg BID lonafarnib, individual patients 1-3", "value": "−1.95 log and −1.97 log and −2.07 log"}, {"measurement": "ALT following ALT flare, patient A-001-5", "setting": "[3]; 200 mg BID lonafarnib", "value": "ALT normalization"}, {"measurement": "ALT following ALT flare, patient A-001-1", "setting": "[3]; 300 mg BID lonafarnib", "value": "ALT normalization"}, {"measurement": "Mean Serum Concentrations (lonafarnib)", "setting": "[4]; Day 7, LNF 200 mg BID", "value": 2555, "unit": "ng/mL"}, {"measurement": "Mean Serum Concentrations (lonafarnib)", "setting": "[4]; Day 7, LNF 300 mg BID", "value": 2994, "unit": "ng/mL"}, {"measurement": "Mean Serum Concentrations (lonafarnib)", "setting": "[4]; Day 14, LNF 200 mg BID", "value": 2959, "unit": "ng/mL"}, {"measurement": "Mean Serum Concentrations (lonafarnib)", "setting": "[4]; Day 14, LNF 300 mg BID", "value": 1548, "unit": "ng/mL"}, {"measurement": "Mean Serum Concentrations (lonafarnib)", "setting": "[4]; Day 28, LNF 200 mg BID", "value": 2771, "unit": "ng/mL"}, {"measurement": "Mean Serum Concentrations (lonafarnib)", "setting": "[4]; Day 28, LNF 300 mg BID", "value": 1984, "unit": "ng/mL"}, {"measurement": "Mean Serum Concentrations (lonafarnib)", "setting": "[4]; Day 56, LNF 200 mg BID", "value": 1656, "unit": "ng/mL"}, {"measurement": "Mean Serum Concentrations (lonafarnib)", "setting": "[4]; Day 56, LNF 300 mg BID", "value": 2032, "unit": "ng/mL"}, {"measurement": "Mean Serum Concentrations (lonafarnib)", "setting": "[4]; Day 84, LNF 200 mg BID", "value": 443, "unit": "ng/mL"}, {"measurement": "Mean Serum Concentrations (lonafarnib)", "setting": "[4]; Day 84, LNF 300 mg BID", "value": 977, "unit": "ng/mL"}, {"measurement": "stability in solution", "setting": "[5]; by pH", "value": "stable at neutral pH but will hydrolyze in acidic or basic conditions"}, {"measurement": "water solubility", "setting": "[5]", "value": "poorly water soluble"}, {"measurement": "hygroscopicity", "setting": "[5]; crystalline solid", "value": "non-hygroscopic"}, {"measurement": "thermal stability", "setting": "[5]; solid state", "value": "thermally stable"}, {"measurement": "bioavailability in animals", "setting": "[6]", "value": "low and variable bioavailability"}, {"measurement": "tolerability in cancer patients", "setting": "[7]", "value": "well tolerated"}, {"measurement": "Anorexia, Grade 2", "setting": "[8]; LNF 200 mg BID", "value": "✓"}, {"measurement": "Diarrhea, Grade 2", "setting": "[8]; LNF 200 mg BID", "value": "✓"}, {"measurement": "Fatique, Grade 2", "setting": "[8]; LNF 200 mg BID", "value": "✓"}, {"measurement": "Nausea, Grade 2", "setting": "[8]; LNF 200 mg BID", "value": "✓"}, {"measurement": "Wt Loss, Grade 2", "setting": "[8]; LNF 200 mg BID", "value": "✓"}, {"measurement": "Anorexia, Grade 2", "setting": "[8]; LNF 300 mg BID", "value": "✓"}, {"measurement": "Diarrhea, Grade 2", "setting": "[8]; LNF 300 mg BID", "value": "✓"}, {"measurement": "Fatique, Grade 2", "setting": "[8]; LNF 300 mg BID", "value": "✓"}, {"measurement": "Nausea, Grade 2", "setting": "[8]; LNF 300 mg BID", "value": "✓"}, {"measurement": "Wt Loss, Grade 2", "setting": "[8]; LNF 300 mg BID", "value": "✓"}, {"measurement": "HBV VL (HBV DNA level) after suppression, patient A-001-5", "setting": "hepatitis B virus (HBV)", "value": "approximately 1.5 log IU/ml"}]}
